Tests used:
[1] = molecular target: Lambda DNA; assay: Ethidium bromide displacement, lambda DNA; assay type: binding; conditions: 1 μM DNA, 1.26 μM ethidium bromide, pH 7.0, read-out: FI50, Lambda DNA
Experimental: (§1) A 10× Binding solution was prepared by combining 0.93 ml of an aqueous NaCl solution (5M), 2.0 ml of an aqueous Tris HCl (500 mM) solution, 0.1 ml of an EDTA solution (500 mM) and 46.97 ml of water. The resultant solution was 93 mM in NaCl, 20 mM in Tris HCl, and 1 mM in EDTA. Stock DNA solution were prepared as follows: Poly (dG·dC)-(dG·dC) (ε254=8.4/mM; 27-7910-02), poly(dA·dT)-(dA·dT) (ε262=6.6/mM; 27-7870-02), and lambda DNA (ε260-7.0/mM; 27-4111-01) were purchased from Pharmacia. Solutions were prepared by resuspending either poly (dG·dC)-(dG·dC) or poly(dA·dT)-(dA·dT)in 1 ml of 10× DNA Binding Solution. Lambda DNA is already in solution as purchased.
(§2) Poly (dG·dC)-(dG·dC), poly(dA·dt)-(dA·dt) and lambda DNA concentrations were determined as follows: 980 μl of 10× DNA Binding Solution was pipetted into a 1 ml cuvette. A blank was run on the UV spectrophotometer. 20 μl of the DNA stock of unknown concentration was then added into the cuvette. The sample was then scanned between 210 nm to 500 nm and the absorbance recorded at 254 nm for poly(dG·dC)-(dG·dC), at 262 nm for poly(dA·dT)-(dA·dT) and at 260 nm for lambda DNA. The solution was transferred to a clean tube. This procedure was followed for three different solutions with the absorbance taken as the average of the three. The concentration of poly(dG·dC)-(dG·dC) stock was calculated to be A254 /8.4×1000 (in μM). The concentration of poly(dA·dT)-(dA·dT) stock was calculated to be A262 /6.6×1000 (in μM). The concentration of lambda DNA stock was calculated to be A260 /7.0×1000 (in μM).
(§3) The binding of the bis-naphthalimides to DNA and to synthetic polynucleotide duplexes was determined by an ethidium bromide displacement assay that measures the reduction of fluorescence when ethidium bromide is displaced from DNA (Baguley, 1981). The fluorescence intensity of a 3 ml solution containing 9.3 mM NaCl, 2 mM Tris-HCl (pH 7.0), 100 μM EDTA, 1 μM DNA (in nucleotides) and 1.26 μM ethidium bromide in a quartz cuvette was measured at the excitation (546 nm) and emission (600 nm) wavelengths on a Shimadzu RF5000U spectrofluorometer. Graded concentrations of agent were then added and the fluorescence intensity was measured. The concentration of compound required to reduce the fluorescence intensity by 50% of that of control (FI50) was determined. Therefore, the lower the FI50 the stronger the binding affinity a particular compound has for DNA.
(§4) The ability of bis-naphthalimides of the present invention and the known anti-cancer agents compound 22 and DMP840, (R,R)-2,2'[1,2-ethanediylbis[imino(1-methyl-2,1-ethanediyl)]]-bis[5-nitro- 1H benz[de]isoquinoline-1,3-(2H)dione]dimethanesulfonate, to bind to DNA and to synthetic oligonucleotide duplexes was measured using an ethidium bromide displacement assay. Ethidium bromide, a known DNA intercalator, has no fluorescence in the absence of DNA; however, fluorescence intensity increases when ethidium bromide binds to DNA. The ethidium bromide displacement assay measures the decrease in fluorescence intensity caused by DNA-bound ethidium bromide with DNA interacting agents.

[2] = system: poly (dG.dC) - poly (dG.dC); assay: Ethidium bromide displacement, poly(dG.dC)-poly(dG.dC); assay type: binding
Experimental: as §1, §2, §3, §4

[3] = molecular target: poly (dA.dT) - poly (dA.dT); assay: Ethidium bromide displacement, poly(dA.dT)-poly(dA.dT); assay type: binding; conditions: 1 μM DNA, 1.26 μM ethidium bromide, pH 7.0, read-out: FI50, poly (dA.dT) - poly (dA.dT)
Experimental: as §1, §2, §3, §4

[4] = system: P388 murine leukemic cell line; assay: In vitro growth inhibition (MTT), P388 leukemia; assay type: cell-based; conditions: 3 days
Excerpt: P388 murine leukemic cell line was obtained from the DCT Tumor Repository (National Cancer Institute, Frederick Cancer Research and Development, Frederick Md. 21702). HT29 Human Colon Carcinoma cell line was obtained from the American Type Culture Collection (12301 Parklawn Drive, Rockville, Md. 20852). B16 Melanoma cell line was obtained from DuPont Merck Pharmaceutical Company (Glenolden, Pa. 19036). MCF-7 Human Breast Carcinoma cell line was a gift from Dr. K. Osborne (Department of Medicine, The University of Texas Health Science Center at San Antonio, San Antonio, Tex. 78284). All cell lines were incubated at 37° C. in a humidified atmosphere of 5% CO2 -95% air. Murine B16 melanoma cell line was grown in RPMI 1640 medium supplemented with 10% heat-inactivated fetal bovine serum, 2 mM L-glutamine, 50 units/ml penicillin, 50 μg/ml streptomycin, 25 μg/ml gentamycin, 0.75% sodium bicarbonate, 10 mM HEPES buffer (pH 7.4), and 0.06 mg/ml AntiPPLO. Murine P388 leukemic and the human HT-29 colon adenocarcinoma cell lines were maintained in RPMI 1640 medium supplemented with 10% heat-inactivated fetal bovine serum. MCF-7M human breast adenocarcinoma was maintained in IMEM medium supplemented with 5% non heat-inactivated fetal bovine serum and 1 nM insulin.
Exponentially growing cells (1-2×10^3 cells, unless specified otherwise) in 0.1 ml medium were seeded on day 0 in a 96-well microtiter plate. On day 1, 0.1 ml aliquots of medium containing graded concentrations of test compounds were added in duplicate to the cell plates. After incubation at 37° C. in a humidified incubator for 3 days (P388, B16) or 6 days (HT-29, MCF-7M), the plates were centrifuged briefly and 100 μl of the growth medium was removed. Cell cultures were incubated with 50 μl of 3-(4,5-dimethylthiazol-2-yl)-2,5-diphenyl-tetrazolium bromide [MTT, 1 mg/ml in Dulbecco's phosphate buffered saline (PBS)] for 4 hr at 37° C. The resulting purple formazan precipitate was solubilized with 200 μl of 0.04N HCl in isopropyl alcohol. Absorbance was monitored in a BioRad Model 3550 Microplate Reader at a test wavelength of 570 nm and a reference wavelength of 630 nm. The absorbance was transferred to a PC 486 computer. The IC50 values were determined by a computer program (EZ-ED50) that fit all of the data to the following four-parameterlogistic equation:
Y=((Am -Ao)/(1+(X/IC50)^n))+Ao
where Am is the absorbance of control cells, Ao is the absorbance of cells in the presence of highest agent concentration, Y is the observed absorbance, X is the agent concentration, IC50 is the concentration of agent that inhibits the cell growth by 50% of control cells (based on the absorbance) and n is the slope of the curve.

Substance: 8-(3'-nitro-1',8'-naphthalimide)-3,6-diazaoctylamine dichloroplatinum(II) [Compound 21]
- IC50 [1]: 235 nM
- Ratio (AT/GC) ([2]; FI50 poly(dA.dT)-poly(dA.dT) / FI50 poly(dG.dC)-poly(dG.dC)): 0.72
- IC50 ([2]; ethidium bromide displacement, 1 μM DNA, 1.26 μM ethidium bromide, pH 7.0, read-out: FI50, poly (dG.dC) - poly (dG.dC)): 239 nM
- IC50 [3]: 173 nM
- IC50 [4]: 302 nM

— patent US5561042A, “Diamine platinum naphthalimide complexes as antitumor agents” (Cancer Therapy and Research Center, priority 1995, dated 1996)
